# Like-named read-outs stand apart in the source and are kept apart here.
# Columns and labels:
# [1] = biological target: Norwalk virus 3CL protease (NV3CL protease), recombinant (Norovirus, UniProt Q83883); assay: Recombinant NV protease FRET inhibition assay (Edans-[…]-Dabcyl substrate), FIG. 4; type: biochemical; conditions: 2.5 μM enzyme, 300 nM Edans-EPDFHLQGPEDLAK-Dabcyl, 30 min incubation, 30° C., pH 8.0
# Protocol: (§1) After a 30 minute incubation period, 5 μL of 12 μM Edans-[…]-Dabcyl (SEQ ID NO:1) substrate in DMSO was then added and the increase in fluorescence was monitored for 30 minutes at an excitation and emission wavelength of 360 and 460 nm, respectively. Using a HORIBA FluoroMax 4 spectrofluorometer. Hydrolysis curves were linear. The final enzyme and substrate concentrations were 2.5 μM and 300 nM, respectively. […] Furthermore, the nature of the cap was also important (compare, for example, inhibitors A and D).
# FIPV-1146 [2] = assay: FIPV-1146 replication in CRFK cells, TCID50 method; type: cell-based, feline coronavirus; conditions: MOI 0.05, mean ± SEM
# Protocol: (§2) Crandell Rees feline kidney (CRFK) cells were maintained in minimal essential medium containing 2-5% fetal bovine serum and antibiotics (chlortetracycline [25 μg/ml], penicillin [250 U/ml], and streptomycin [250 μg/ml]). FIPV WSU 79-1146 and FECV WSU 79-1683 strains are the prototypes of serotype II FIPV or FECV, respectively, and were purchased from ATCC (Manassas, Va.).
# (§3) The cells were further incubated in the presence of each compound for 1 hr at 37° C. Then […] or FECV-1683 was inoculated to the cells at a multiplicity of infection (MOI) of 0.05 or 5.
# (§4) b. TCID50 Method. A standard TCID50 method with the 10-fold dilution of each sample was used for virus titration.
# FECV-1683 = FECV-1683 replication in CRFK cells, TCID50 method; type: cell-based, feline coronavirus; conditions: MOI 0.05, mean ± SEM
# Protocol: as §2, §3, §4
# FIPV-1146 [3] = assay: Combination treatment of CA074-Me and GC373 on FIPV-1146 replication, MacSynergy II; type: cell-based, feline coronavirus; conditions: CA074-Me alone at 1, FIPV-infected CRFK cells
# Protocol: The CRFK cells were incubated with GC373 (0.02˜0.2 μM), CA074-Me (0.5˜5 μM), or the combinations of GC373 (0.02˜0.2 μM) and CA074-Me (0.5˜5 μM) for 1 hr at 37° C. prior to inoculation of FIPV-1146 at an MOI of 0.05. After 24 hrs of incubation, virus replication was assessed with virus titration using the TCID50 method. Drug-drug interactions were analyzed by the three-dimensional model of Prichard and Shipman, using the MacSynergy II software at 95% confidence limits. Theoretical additive interactions were calculated from the dose-response curve for each compound individually, and the calculated additive surface was subtracted from the experimentally determined dose-response surface to give regions of synergistic or antagonistic interactions. The resulting surface appears as horizontal plane at 0% of synergy if the interactions of two compounds are additive. Any peak above or below this plane indicates synergy or antagonism, respectively.
# [4] = test system: cells used for virus replication; assay: Non-specific cytotoxicity in the cells used for virus replication (Example 3); type: cell-based
# Protocol: Confluent cells grown in 96-well plates were treated with various concentrations (1 to 500 μM) of each compound for 72 h. Cell cytotoxicity was measured by a CytoTox 96® nonradioactive cytotoxicity assay kit (Promega, Madison, Wis.) and crystal violet staining. The In vitro therapeutic index was calculated by dividing the TD50 by the IC50.
# [5] = test system: coronavirus proteases (TGEV and SARS-CoV); type: biochemical; conditions: optimized FRET assay
# FCV = assay: Cell culture system, FCV replication in CRFK cells (Example 3); type: cell-based, feline calicivirus; conditions: at concentrations up to 50 μM or 100 μM
# MNV-1 = assay: Cell culture system, MNV-1 replication in RAW267.4 cells (Example 3); type: cell-based, murine norovirus; conditions: at concentrations up to 50 μM or 100 μM
# MHV = assay: Cell culture system, MHV replication in CCL-9.1 cells (Example 3); type: cell-based, mouse hepatitis virus; conditions: at concentrations up to 50 μM or 100 μM
# [6] = test system: norovirus (cell-based replicon system); assay: Cell-based replicon system of norovirus (Example 4)
# [7] = biological target: Norwalk virus 3CL protease (Norovirus, UniProt Q83883); assay: Recombinant NV protease fluorogenic substrate inhibition assay (Example 1); type: biochemical; conditions: 30 min pre-incubation, 30° C., pH 8.0
# Protocol: as §1
# [8] = test system: norovirus (NV replicon-harboring HG23 cells); assay: NV replicon-harboring cells (HG23), NV genome levels by qRT-PCR (Example 1); type: cell-based, Norwalk virus; conditions: read-out: ED50, effective dose that inhibits 50% of norovirus replication, NV genome levels at 24 hrs post-treatment
# HG23 cells = conditions: human
# [9] = test system: murine norovirus-1 (MNV-1); assay: MNV-1 replication in RAW267.4 cells, TCID50 (Example 1); type: cell-based; conditions: Norwalk virus, MOI 2, TCID50 assay, read-out: ED50, replication of murine norovirus (MNV)
# [10] = 24 hr post infection, read-out: Inhibition [ED50 (μM)] against FIPV-1146, 24 hrs
# [11] = 48 hr post infection, read-out: Inhibition [ED50 (μM)] against FIPV-1146, 48 hrs
# [12] = 24 hr post infection, read-out: Inhibition [ED50 (μM)] against FECV-1683, 24 hrs
# [13] = 48 hr post infection, read-out: Inhibition [ED50 (μM)] against FECV-1683, 48 hrs
# Chain of Norwalk virus 3CL protease (NV3CL protease), recombinant (Q83883 1101-1281): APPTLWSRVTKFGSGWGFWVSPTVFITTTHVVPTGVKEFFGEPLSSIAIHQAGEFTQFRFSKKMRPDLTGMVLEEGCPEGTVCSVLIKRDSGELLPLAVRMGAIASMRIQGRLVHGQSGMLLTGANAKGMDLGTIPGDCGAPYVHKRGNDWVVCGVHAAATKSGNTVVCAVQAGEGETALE
# Chain of Norwalk virus 3CL protease (Q83883 1101-1281): as above
structure (smiles),measurement,setting,value
CC(C)C[C@H](NC(=O)N1CCOCC1)C(=O)N[C@H](C=O)CC1CCNC1=O (stereo partly drawn) [Inhibitor A],IC50,[1],7200 nM
"CCCNC(=O)[C@H]1O[C@@H]1C(=O)N[C@H](C(=O)N1CCC[C@H]1C(=O)OC)[C@@H](C)CC (relative stereo) [CA074-Me, L-3-trans-((propylcarbamyl)oxirane-2-Carbonyl)-L-isoleucyl-L-proline methyl ester, reference compound]",EC50,FIPV-1146 [2]; [10],2.5 ± 1.4 µM
same,EC50,FIPV-1146 [2]; [11],> 10 µM
same,EC50,FECV-1683; [12],4 ± 0.71 µM
same,EC50,FECV-1683; [13],> 10 µM
same,reduction of virus titers,FIPV-1146 [3],0.5 log10
CCOC(=O)/C=C/[C@H](C[C@@H]1CCNC1=O)NC(=O)[C@@H](CC(=O)[C@@H](NC(=O)c1cc(C)on1)C(C)C)Cc1ccc(F)cc1 [Rupintrivir],non-specific cytotoxicity: none shown up to this concentration,[4],> 500 µM
same,activity against the coronavirus proteases compared to GC373 and GC376 (in words),[5],substantially less effective
same,inhibition of replication of FCV (in words),FCV,did not inhibit the replication
same,inhibition of replication of MNV-1 (in words),MNV-1,did not inhibit the replication
same,inhibition of replication of MHV (in words),MHV,did not inhibit the replication
CC(C)NC(=O)C(O)[C@H](CC1CCNC1=O)NC(=O)[C@H](Cc1ccccc1)NC(=O)OCc1ccccc1 (stereo partly drawn) [Inhibitor 5h],anti-norovirus activity in the cell-based replicon system (in words),[6],noteworthy activity
CCCC[C@H](NC(=O)CNC(=O)OCc1ccccc1)C(=O)N[C@H](C=O)CC1CCNC1=O (stereo partly drawn) [Inhibitor G],IC50,[1],870 nM
same,inhibitory activity against Norwalk virus 3CL protease (in words),[7],sub-micromolar inhibitor
CC(C)C[C@H](NC(=O)OCc1ccccc1)C(=O)N[C@@H](CC1CCNC1=O)C(=O)c1ncco1 (stereo partly drawn) [Inhibitor 8a],EC50,[6]; read-out: ED50 in the cell-based replicon system,900 nM
CCC(C)[C@H](NC(=O)CNC(=O)OCc1ccccc1)C(=O)N[C@H](C=O)CC1CCNC1=O (stereo partly drawn) [Inhibitor I],inhibitory activity against Norwalk virus 3CL protease (in words),[7],detrimental to inhibitory activity
CC(C)C[C@H](NC(=O)CNC(=O)OCc1ccccc1)C(=O)N[C@H](C=O)CC1CCNC1=O (stereo partly drawn) [Inhibitor E],EC50,[8],7.8 µM
same,"TD50, median toxic dose",HG23 cells,> 320 µM
same,IC50,[1],1450 nM
same,inhibitory activity against Norwalk virus 3CL protease (in words),[7],"improved potency, albeit not dramatically"
same,EC50,[9],20.3 µM
CC(C)C[C@H](NC(=O)OCc1ccccc1)C(=O)N[C@@H](CC1CCNC1=O)C(O)c1nccs1 (stereo partly drawn) [Inhibitor 7b],anti-norovirus activity in the cell-based replicon system (in words),[6],noteworthy activity
"CCOC(=O)[C@H]1O[C@@H]1C(=O)N[C@@H](CC(C)C)C(=O)NCCC(C)C (relative stereo) [Inhibitor E64d, (2S,3S)-trans-epoxysuccinyl-L-leucylamido-3-methylbutane ethyl ester, reference compound]",EC50,FIPV-1146 [2]; [10],1.45 ± 0.49 µM
same,EC50,FIPV-1146 [2]; [11],> 10 µM
same,EC50,FECV-1683; [12],2.3 ± 0.28 µM
same,EC50,FECV-1683; [13],> 10 µM
CC(C)C[C@H](NC(=O)OCc1ccccc1)C(=O)N[C@@H](CC1CCNC1=O)C(O)C(=O)NC(C)C (stereo partly drawn) [Inhibitor 5a],anti-norovirus activity in the cell-based replicon system (in words),[6],noteworthy activity
